Results as given in publication PMC7106896, “Synthesis and biological evaluation of 2-(4-methylsulfonyl phenyl) indole derivatives: multi-target compounds with dual antimicrobial and anti-inflammatory activities” (BMC Chemistry, 2020).
≈ marks a conversion by molar mass, not a printed value.

Key:
C. albicans = assay: Minimal inhibitory concentration measurement; assay type: cell-based; settings: Candida albicans; read-out: MIC Ca (C. albicans)
Description: (§3) The antimicrobial and antifungal screening was performed according to CO-ADD (The Community for Antimicrobial Drug Discovery) procedures [27].

[1] = system: C. neoformans var. grubii; assay: Minimal inhibitory concentration measurement; assay type: cell-based; settings: Cryptococcus neoformans; read-out: MIC Cn (C. neoformans var. grubii)
Description: as §3

Ovine COX-1 = target: T1, Ovine COX-1 (Ovis aries, UniProt P05979); assay: In vitro COX inhibition colorimetric assay; assay type: biochemical
T1 construct: purchased Cayman Chemical, Ann Arbor, MI, USA 760111
T1 sequence (P05979 25-600): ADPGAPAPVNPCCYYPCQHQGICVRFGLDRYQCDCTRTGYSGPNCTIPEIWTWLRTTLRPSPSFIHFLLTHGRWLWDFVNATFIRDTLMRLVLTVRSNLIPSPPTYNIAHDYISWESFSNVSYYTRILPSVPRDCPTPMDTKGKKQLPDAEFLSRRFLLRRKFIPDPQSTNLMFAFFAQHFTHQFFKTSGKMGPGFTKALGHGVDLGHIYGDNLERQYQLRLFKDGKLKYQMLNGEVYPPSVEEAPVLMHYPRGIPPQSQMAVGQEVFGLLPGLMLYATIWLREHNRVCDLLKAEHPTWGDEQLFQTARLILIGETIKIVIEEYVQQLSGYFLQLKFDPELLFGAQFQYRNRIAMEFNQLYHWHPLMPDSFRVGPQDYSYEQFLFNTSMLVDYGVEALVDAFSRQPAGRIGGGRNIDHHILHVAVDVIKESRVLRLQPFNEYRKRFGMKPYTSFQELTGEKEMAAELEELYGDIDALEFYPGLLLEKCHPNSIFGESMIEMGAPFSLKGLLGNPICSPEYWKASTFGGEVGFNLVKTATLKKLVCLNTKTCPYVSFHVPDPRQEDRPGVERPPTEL

E. coli = assay: Minimal inhibitory concentration measurement; assay type: cell-based; settings: Escherichia coli; read-out: MIC Ec (E. coli)
Description: as §3

[2] = system: Candida albicans (ATCC 90028); assay: Antifungal screening (CO-ADD), growth inhibition at single concentration; assay type: cell-based; settings: ATCC90028, at 32 µg/mL concentration, read-out: growth inhibition % Ca (C. albicans)
Description: (§1) The antimicrobial study was performed by CO-ADD (The Community for Antimicrobial Drug Discovery), funded by the Wellcome Trust (UK) and The University of Queensland (Australia). Evaluation of all synthesized compounds for their antimicrobial activities was done against five pathogenic bacteria, methicillin-resistant Staphylococcus aureus (ATCC 43300) as Gram-positive bacteria, Escherichia coli (ATCC 25922), Klebsiella pneumonia (ATCC 700603), Acinetobacter baumannii (ATCC 19606) and Pseudomonas aeruginosa (ATCC 27853) as Gram-negative bacteria and antifungal activity against two pathogenic fungal strains Candida albicans (ATCC 90028) and Cryptococcus neoformans var. grubii (H99; ATCC 208821) (Table 1).

P. aeruginosa = assay: Minimal inhibitory concentration measurement; assay type: cell-based; settings: Pseudomonas aeruginosa; read-out: MIC Pa (P. aeruginosa)
Description: as §3

human red blood cells = assay: Hemolysis of human red blood cells; assay type: cell-based
Description: (§2) The safety margin for the active compounds to human cells was determined through cytotoxicity against human embryonic kidney cell line and hemolysis of human red blood cells. The tested compounds 7a, 7g, and 7i were tolerated and non-toxic to human cells as the cytotoxic and hemolytic dose was higher than the therapeutic dose (Table 2).

human recombinant COX-2 = assay: In vitro COX inhibition colorimetric assay; assay type: biochemical; settings: COX-1 IC50/COX-2 IC50
[3] = system: carrageenan-induced rat paw edema; assay: Carrageenan-induced rat paw edema assay; assay type: in vivo; settings: for Edema thickness (mm) ± SEM: n = 4
Description: Pretreatment of rats with compounds 7a–k, 8a–c, and 9a–c before injection with carrageenan in rat paw which induces inflammation and then the percentage of paw edema reduction was measured after certain hours according to previously reported procedures.

[4] = system: MRSA bacteria and E. coli, K. pneumoniae, P. aeruginosa, and A. baumannii; assay: Antibacterial screening, result pooled over the five bacteria; assay type: cell-based; settings: read-out: growth inhibition, range over MRSA, E. coli, K. pneumoniae, P. aeruginosa and A. baumannii
Description: as §1

[5] = Cytotoxicity against human embryonic kidney cell line; assay type: cell-based; settings: read-out: CC50 (concentration at 50% cytotoxicity)
Description: as §2

MRSA = assay: Minimal inhibitory concentration measurement; assay type: cell-based; settings: Staphylococcus aureus, read-out: MIC Sa (MRSA)
Description: as §3

[6] = system: Pseudomonas aeruginosa (ATCC 27853); assay: Antimicrobial screening (CO-ADD), growth inhibition at single concentration; assay type: cell-based; settings: ATCC27853, at 32 µg/mL concentration, read-out: growth inhibition % Pa (P. aeruginosa)
Description: as §1

[7] = system: Klebsiella pneumonia (ATCC 700603); assay: as above; assay type: cell-based; settings: Klebsiella pneumoniae, ATCC700603; at 32 µg/mL concentration; read-out: growth inhibition % Kp (K. pneumoniae)
Description: as §1

[8] = system: methicillin-resistant Staphylococcus aureus (ATCC 43300); assay: as above; assay type: cell-based; settings: ATCC 43300 / MRSA, at 32 µg/mL concentration, read-out: growth inhibition % Sa (MRSA)
Description: as §1

[9] = system: Acinetobacter baumannii (ATCC 19606); assay: as above; assay type: cell-based; settings: ATCC19606, at 32 µg/mL concentration, read-out: growth inhibition % Ab (A. baumannii)
Description: as §1

[10] = system: Escherichia coli (ATCC 25922); assay: as above; assay type: cell-based; settings: ATCC25922, at 32 µg/mL concentration, read-out: growth inhibition % Ec (E. coli)
Description: as §1

A. baumannii = assay: Minimal inhibitory concentration measurement; assay type: cell-based; settings: Acinetobacter baumannii; read-out: MIC Ab (A. baumannii)
Description: as §3

Structure (SMILES) | MIC (C. albicans) | MIC [1] | IC50 (Ovine COX-1) | MIC (E. coli) | inhibition at 32 µg/mL [2] | MIC (P. aeruginosa) | HC10 (concentration at 10% hemolysis) (human red blood cells) | Selectivity index (SI) (human recombinant COX-2) | Edema inhibition % ([3]; 1 h) | Edema thickness (mm) ± SEM ([3]; 1 h) | Edema inhibition % ([3]; 3 h) | Edema thickness (mm) ± SEM ([3]; 3 h) | Edema inhibition % ([3]; 6 h) | Edema thickness (mm) ± SEM ([3]; 6 h) | melting point | inhibition at 32 µg/mL [4] | CC50 [5] | MIC (MRSA) | inhibition at 32 µg/mL [6] | inhibition at 32 µg/mL [7] | other results
C[C@@H]1[C@H](O)[C@@H](C)/C=C/C=C/C=C/C=C/C=C/C=C/C=C/[C@H](O[C@@H]2O[C@H](C)[C@@H](O)[C@H](N)[C@@H]2O)C[C@@H]2O[C@](O)(C[C@@H](O)C[C@@H](O)[C@H](O)CC[C@@H](O)C[C@@H](O)CC(=O)O[C@H]1C)C[C@H](O)[C@H]2C(=O)O [Amphotericin B, amphotericin B, reference compound] | 1.56 µg/mL (≈ 1.69 µM) | 1.56 µg/mL (≈ 1.69 µM) | – | – | – | – | – | – | – | – | – | – | – | – | – | – | – | – | – | – | –
Cc1ccc(NN=Cc2c(-c3ccc(S(C)(=O)=O)cc3)[nH]c3ccc(C)cc23)cc1 [Compound 7g, 5-Methyl-2-(4-(methylsulfonyl)phenyl)-3-((2-(p-tolyl)hydrazono)methyl)-1H-indole] | > 32 µg/mL | > 32 µg/mL | 7.9 µM | ≤ 0.25 µg/mL | 4.88% | 1 µg/mL (≈ 2.4 µM) | > 32 µg/mL | 39.50 | 58.5% | 1.088 ± 0.090 mm | 72.3% | 0.618 ± 0.010 mm | 67.4% | 0.618 ± 0.045 mm | 166 to 168 °C | 85.8 to 97.8% | 4.2 µg/mL (≈ 10.1 µM) | 1 µg/mL (≈ 2.4 µM) | 94.6% | 87.5% | inhibition at 32 µg/mL [8]: 96.2%; inhibition at 32 µg/mL [9]: 85.8%; inhibition at 32 µg/mL [10]: 86.4%; MIC Kp (K. pneumoniae) (K. pneumoniae): 1 µg/mL (≈ 2.4 µM); MIC (A. baumannii): 4 µg/mL (≈ 9.58 µM)
CS(=O)(=O)c1ccc(-c2[nH]c3ccc(F)cc3c2/C=N/Nc2ccc(S(N)(=O)=O)cc2)cc1 [Compound 7i, 4-(2-((5-Fluoro-2-(4-(methylsulfonyl)phenyl)-1H-indol-3yl)methylene)hydrazinyl) benzene sulfonamide] | > 32 µg/mL | > 32 µg/mL | 13.2 µM | ≤ 0.25 µg/mL | 15.3% | 2 µg/mL (≈ 4.11 µM) | > 32 µg/mL | 132 | 73.1% | 0.705 ± 0.047 mm | 94.3% | 0.127 ± 0.009 mm | 90.1% | 0.187 ± 0.015 mm | 212 to 214 °C | 85.8 to 97.8% | 2.99 µg/mL (≈ 6.14 µM) | 2 µg/mL (≈ 4.11 µM) | 96.9% | 94.4% | inhibition at 32 µg/mL [8]: 95.2%; inhibition at 32 µg/mL [9]: 94.3%; inhibition at 32 µg/mL [10]: 96.5%; MIC Kp (K. pneumoniae) (K. pneumoniae): 2 µg/mL (≈ 4.11 µM); MIC (A. baumannii): 4 µg/mL (≈ 8.22 µM)
CS(=O)(=O)c1ccc(-c2[nH]c3ccccc3c2C=NNc2ccc(F)cc2)cc1 [Compound 7a, 3-((2-(4-Fluorophenyl)hydrazono)methyl)-2-(4-(methylsulfonyl)phenyl)-1H-indole] | > 32 µg/mL | > 32 µg/mL | 10.3 µM | ≤ 0.25 µg/mL | 6.28% | 4 µg/mL (≈ 9.82 µM) | > 32 µg/mL | 93.81 | 74.1% | 0.679 ± 0.03 mm | 88.7% | 0.250 ± 0.021 mm | 92% | 0.151 ± 0.007 mm | 204 to 206 °C | 85.8 to 97.8% | > 32 µg/mL | 8 µg/mL (≈ 19.6 µM) | 97.8% | 97.6% | inhibition at 32 µg/mL [8]: 95.8%; inhibition at 32 µg/mL [9]: 96.7%; inhibition at 32 µg/mL [10]: 96.5%; MIC Kp (K. pneumoniae) (K. pneumoniae): 8 µg/mL (≈ 19.6 µM); MIC (A. baumannii): 16 µg/mL (≈ 39.3 µM)
